{
  "source": "patent US10398671B2",
  "about": "“Fatty acid formulations and methods of use thereof” (Children's Hospital & Research Center at Oakland, priority 2007, dated 2019)",
  "key": {"[1]": {"test": "Plasma alpha-d-tocopherol level, Patient A", "format": "in vivo, human", "details": "despite high dose supplementation", "description": "The vit E dose was increased over several weeks and is now in the range recommended for neurological complications of vit E deficiency (100-200 mg/kg/day alpha-d-tocopherol). Sokol et al. Gastroenterology 1993; 104(6):1727-35. […] All speech therapy and occupational therapy has been phased out due to this rapid and remarkable improvement within 5 months of beginning therapy, at which point it was felt by all evaluators to no longer be necessary."}, "global apraxia/dyspraxia": {"tested_on": "global apraxia/dyspraxia", "test": "Case study Patient A: clinical observation of speech, coordination, tone and sensory symptoms", "format": "in vivo, human", "details": "for speech clarity and energy level/stamina: coenzyme Q 100 mg/day, vitamin C 250 mg/day and alpha-lipoic acid 300 mg/day added together to regimen, within 1 week", "protocol": "They were placed on omega 3/6/9 fatty acid therapy.\nIn addition Vitamin K (to prevent adverse effect of vitamin K antagonism by high dose vitamin E), a complete multi-vitamin combination (with selenium, zinc and high B-complex and additional fat soluble vitamins) was also added to the daily regimen."}, "[2]": {"details": "cited from earlier work"}},
  "data": [
    {"molecule": "Cc1c(C)c2c(c(C)c1O)CC[C@@](C)(CCC[C@H](C)CCC[C@H](C)CCCC(C)C)O2", "note": "[alpha-d-tocopherol]", "values": [
      {"measurement": "change of plasma levels of alpha-d-tocopherol", "setting": "[1]", "value": "did not change"}
    ]},
    {"molecule": "COC1=C(OC)C(=O)C(C/C=C(\\C)CC/C=C(\\C)CC/C=C(\\C)CC/C=C(\\C)CC/C=C(\\C)CC/C=C(\\C)CC/C=C(\\C)CC/C=C(\\C)CC/C=C(\\C)CCC=C(C)C)=C(C)C1=O", "note": "[coenzyme Q, 2,3-dimethoxy-5-methyl-6-polyprenyl-1,4-benzoquinone]", "values": [
      {"measurement": "speech clarity and energy level/stamina", "setting": "global apraxia/dyspraxia", "value": "increased clarity of speech and improved energy level/stamina"}
    ]},
    {"molecule": "C[C@@H]1[C@H](O)[C@@H](C)/C=C/C=C/CC/C=C/C=C/C=C/C=C/C(O[C@H]2O[C@H](C)[C@@H](O)[C@H](N)[C@@H]2O)CC2O[C@](O)(CC(O)C(O)CCC(O)CC(O)CC(O)CC(=O)O[C@H]1C)CC(O)C2C(=O)O", "note": "(some centres unmarked) [nystatin]", "values": [
      {"measurement": "neurologic benefits", "setting": "global apraxia/dyspraxia", "value": "Further neurologic benefits"}
    ]},
    {"molecule": "Polyenylphosphatidylcholine", "values": [
      {"measurement": "stearrhea (fat absorption)", "setting": "global apraxia/dyspraxia; 3 grams/day, within a week of supplementation", "value": "decreased in stearrhea"}
    ]},
    {"molecule": "C[C@]12C=CC(=O)C=C1CC[C@@H]1[C@@H]2C(=O)C[C@@]2(C)[C@H]1CC[C@]2(O)C(=O)CO", "note": "[prednisone]", "values": [
      {"measurement": "speech, coordination and behavior", "setting": "global apraxia/dyspraxia; oral, used for allergic reactions and asthma exacerbations triggered by food allergy", "value": "improvement in speech, coordination and behavior"}
    ]},
    {"molecule": "O=C(O)CCCCC1CCSS1", "note": "(stereo not drawn) [lipoic acid, α-lipoic acid]", "values": [
      {"measurement": "speech clarity and energy level/stamina", "setting": "global apraxia/dyspraxia", "value": "increased clarity of speech and improved energy level/stamina"},
      {"measurement": "pKa", "setting": "[2]", "value": 4.7}
    ]},
    {"molecule": "O=C1O[C@H]([C@@H](O)CO)C(O)=C1O", "note": "[vitamin C, ascorbic acid]", "values": [
      {"measurement": "speech clarity and energy level/stamina", "setting": "global apraxia/dyspraxia", "value": "increased clarity of speech and improved energy level/stamina"}
    ]}
  ]
}
